In patent US11549142B2, “CETP inhibitors for therapeutic use” (Hoffmann-La Roche Inc., priority 2013, dated 2023):

Tested on: patients recently hospitalized for an Acute Coronary Syndrome (ACS)
Experiment: dal-OUTCOMES phase III trial with pharmacogenomic (GWAS) analysis of cardiovascular events by ADCY9 genotype
Type: in vivo, human
Set-up: key to Predicted response: R: Responsive; PR: Partial Responsive; NR: Non Responsive
Experimental: The dalcetrapib mortality and morbidity trial (dal-OUTCOMES) was a double-blind, randomized, placebo-controlled, parallel group, multi-centre study in stable CHD patients recently hospitalized for acute coronary syndrome (ACS). The study was conducted to test the hypothesis that CETP inhibition will reduce the risk of recurrent cardiovascular events in patients with recent ACS by raising levels of HDL-C through CETP inhibition. Eligible patients entered a single-blind placebo run-in period of approximately 4 to 6 weeks to allow for patients to stabilize and for completion of planned revascularization procedures. At the end of the run-in period, eligible patients in stable condition were randomized in a 1:1 ratio to 600 mg of dalcetrapib or placebo on top of evidence-based medical care for ACS. Dalcetrapib is an inhibitor of cholesterol-ester transfer protein (CETP). […] The trial was interrupted in May 2012 by the DSMB on grounds of futility.
Dal-OUTCOMES trial (NC20971) was a double blind, randomized, placebo-controlled, parallel group, multi-center, phase III study to assess the safety and efficacy of the CETP inhibitor dalcetrapib in patients recently hospitalized for an Acute Coronary Syndrome (ACS). At time of the interim analysis the study included 15871 randomized patients, distributed over two treatment arms: placebo (7933 patients) and dalcetrapib (600 mg daily; 7938 patients). […] The dal-OUTCOMES study details can be found in G. Schwartz et al., N. Engl. J. Med. 367; 22, 2012.\
Whole genome analysis was performed in GLP-environment at the Beaulieu-Saucier Pharmacogenomics Centre. The Infinium® HumanOmni25Exome-8v1_A BeadChip (Illumina, San Diego, Calif.) including 2,567,845 genomic markers was used and processed according to the manufacturer's specifications. Approximately 200 ng of genomic DNA was whole-genome amplified, fragmented, and hybridized to locus-specific probes bound to the surface of each BeadChip. DNA was genotyped using a fluorescently labelled single base extension assay. BeadChips were scanned and analyzed using the Illumina® iScan Reader. Infinium® process controls were monitored and all results were within manufacturer's specifications. Scanned images were analyzed using Illumina's GenomeStudio® version 2011.1 with the GenTrain 2.0 cluster algorithm, using a No-Call threshold of 0.15, without manual cluster adjustment and using the manufacturer's Illumina® HumanOmni25Exome-8v1_A cluster file. […] Three genotyping files in PLINK format generated by GenomeStudio® were combined and transformed to binary PLINK format.
Genotyping completion rate for samples and SNPs was set to 98%. SNPs with genotyping plate bias (based on the 96 well plates used to dilute DNA samples) were flagged but not removed as the effect of genetic ancestry could not be excluded. Pairwise IBD was used to conduct close familial relationship checks. We flagged and removed all but one pair-member of related pairs and sample duplicates (IBS2*ratio>0.80) based on a selection of uncorrelated SNPs (r^2<0.1). The pairwise IBS matrix was used as a distance metric to identify cryptic relatedness among samples and sample outliers by multi-dimensional scaling (MDS). The first two MDS components of each subject were plotted including the genotypes of HapMap CEU, JPT-CHB, and YRI data (keeping only founder individuals). Outliers from the main Caucasian cluster were flagged and removed by k-nearest neighbour. (Supplementary FIG. 1) The scree plot and the cumulative explained variance were computed using the smartpca program of the EIGENSOFT suite (version 3.0). Options used were a numoutlieriter (maximum number of outlier removal iterations) of 0 (turned off) and altnormstyle (normalization formula) equal to NO. ^4 (Supplementary FIG. 2)
A statistical analysis plan was developed at the Beaulieu-Saucier Pharmacogenomics Centre and the final version approved prior to genotyping completion in October 2012. […]

For `CCC(CC)CC1(C(=O)Nc2ccccc2SC(=O)C(C)C)CCCCC1` [dalcetrapib, thioisobutyric acid S-(2-{[1-(2-ethyl-butyl)-cyclohexanecarbonyl]-amino}-phenyl) ester], which Predicted response (rs8061182 genotype AA) is on record?
Its Predicted response is “R”.

What about the “HR for time to events, dalcetrapib treatment arm versus placebo arm” value (rs8061182 genotype AG) of the same compound?
Its value is 0.99.

And the Predicted response (rs8061182 genotype AG)?
Its Predicted response is “PR”.

And the “HR for time to events, dalcetrapib treatment arm versus placebo arm” value (rs8061182 genotype GG)?
Its value is 1.55.

And the Predicted response (rs8061182 genotype GG)?
The Predicted response was “NR”.

And the “HR (95% CI) for time to events, dalcetrapib treatment arm only, genotype comparison” value (shortened to “HR (95% CI) for time to events”) (rs11647828 AG vs AA)?
Its value is 0.74 (0.6, 0.92).

What about the “HR (95% CI) for time to events” value (rs11647828 GG vs AA) of the same compound?
The value was 0.46 (0.33, 0.63).

What about the “HR for time to events, dalcetrapib treatment arm versus placebo arm” value (rs11647828 genotype AA) of the same compound?
The value was 1.33.

And the Predicted response (rs11647828 genotype AA)?
The Predicted response was “NR”.

What about the “HR for time to events, dalcetrapib treatment arm versus placebo arm” value (rs11647828 genotype AG) of the same compound?
The value was 0.97.

What about the Predicted response (rs11647828 genotype AG) of the same compound?
The Predicted response was “PR”.

And the “HR for time to events, dalcetrapib treatment arm versus placebo arm” value (rs11647828 genotype GG)?
Its value is 0.61.

And the Predicted response (rs11647828 genotype GG)?
The Predicted response was “R”.

And the “HR (95% CI) for time to events” value (rs12595857 AG vs AA)?
Its value is 0.7 (0.57, 0.87).

What about the “HR (95% CI) for time to events” value (rs12595857 GG vs AA) of the same compound?
The value was 0.45 (0.33, 0.62).

What about the “HR for time to events, dalcetrapib treatment arm versus placebo arm” value (rs12595857 genotype AA) of the same compound?
Its value is 1.27.

And the Predicted response (rs12595857 genotype AA)?
The Predicted response was “NR”.

What about the “HR for time to events, dalcetrapib treatment arm versus placebo arm” value (rs12595857 genotype AG) of the same compound?
The value was 0.95.

And the Predicted response (rs12595857 genotype AG)?
Its Predicted response is “PR”.

What about the “HR for time to events, dalcetrapib treatment arm versus placebo arm” value (rs12595857 genotype GG) of the same compound?
Its value is 0.7.

What about the Predicted response (rs12595857 genotype GG) of the same compound?
The Predicted response was “R”.

And the “HR (95% CI) for time to events” value (rs12935810 AA vs GG)?
The value was 1.87 (1.42, 2.48).

And the “HR (95% CI) for time to events” value (rs12935810 GA vs GG)?
Its value is 1.3 (1.02, 1.65).

What about the “HR for time to events, dalcetrapib treatment arm versus placebo arm” value (rs12935810 genotype AA) of the same compound?
The value was 1.28.

What about the Predicted response (rs12935810 genotype AA) of the same compound?
Its Predicted response is “NR”.

What about the “HR for time to events, dalcetrapib treatment arm versus placebo arm” value (rs12935810 genotype GA) of the same compound?
Its value is 1.03.

And the Predicted response (rs12935810 genotype GA)?
Its Predicted response is “NR”.

What about the “HR for time to events, dalcetrapib treatment arm versus placebo arm” value (rs12935810 genotype GG) of the same compound?
The value was 0.79.

And the Predicted response (rs12935810 genotype GG)?
The Predicted response was “R”.

And the “HR (95% CI) for time to events” value (rs13337675 AG vs AA)?
The value was 0.84 (0.68, 1.03).

And the “HR (95% CI) for time to events” value (rs13337675 GG vs AA)?
The value was 0.7 (0.43, 1.14).

What about the “HR for time to events, dalcetrapib treatment arm versus placebo arm” value (rs13337675 genotype AA) of the same compound?
The value was 1.07.

What about the Predicted response (rs13337675 genotype AA) of the same compound?
The Predicted response was “NR”.

What about the “HR for time to events, dalcetrapib treatment arm versus placebo arm” value (rs13337675 genotype AG) of the same compound?
Its value is 0.89.

What about the Predicted response (rs13337675 genotype AG) of the same compound?
Its Predicted response is “PR”.

And the “HR for time to events, dalcetrapib treatment arm versus placebo arm” value (rs13337675 genotype GG)?
The value was 1.03.

What about the Predicted response (rs13337675 genotype GG) of the same compound?
The Predicted response was “PR”.

And the “HR (95% CI) for time to events” value (rs17136707 AG vs AA)?
The value was 0.62 (0.47, 0.81).

And the “HR (95% CI) for time to events” value (rs17136707 GG vs AA)?
Its value is 0.16 (0.02, 1.15).

And the “HR for time to events, dalcetrapib treatment arm versus placebo arm” value (rs17136707 genotype AA)?
The value was 1.06.

What about the Predicted response (rs17136707 genotype AA) of the same compound?
Its Predicted response is “NR”.

What about the “HR for time to events, dalcetrapib treatment arm versus placebo arm” value (rs17136707 genotype AG) of the same compound?
The value was 0.8.

And the Predicted response (rs17136707 genotype AG)?
Its Predicted response is “PR”.

And the “HR for time to events, dalcetrapib treatment arm versus placebo arm” value (rs17136707 genotype GG)?
Its value is 0.37.

What about the Predicted response (rs17136707 genotype GG) of the same compound?
The Predicted response was “R”.

What about the “HR (95% CI) for time to events” value (rs74702385 AA vs GG) of the same compound?
Its value is 0.14 (0.02, 1).

What about the “HR (95% CI) for time to events” value (rs74702385 GA vs GG) of the same compound?
Its value is 0.63 (0.48, 0.83).

And the “HR for time to events, dalcetrapib treatment arm versus placebo arm” value (rs74702385 genotype AA)?
Its value is 0.26.

What about the Predicted response (rs74702385 genotype AA) of the same compound?
Its Predicted response is “R”.

And the “HR for time to events, dalcetrapib treatment arm versus placebo arm” value (rs74702385 genotype GA)?
Its value is 0.84.

And the Predicted response (rs74702385 genotype GA)?
The Predicted response was “R”.

What about the “HR for time to events, dalcetrapib treatment arm versus placebo arm” value (rs74702385 genotype GG) of the same compound?
The value was 1.05.

And the Predicted response (rs74702385 genotype GG)?
The Predicted response was “NR”.

And the “HR (95% CI) for time to events” value (rs111590482 AG vs AA)?
Its value is 0.64 (0.49, 0.84).

What about the “HR (95% CI) for time to events” value (rs111590482 GG vs AA) of the same compound?
The value was 0.15 (0.02, 1.1).

And the “HR for time to events, dalcetrapib treatment arm versus placebo arm” value (rs111590482 genotype AA)?
The value was 1.04.

And the Predicted response (rs111590482 genotype AA)?
The Predicted response was “NR”.

What about the “HR for time to events, dalcetrapib treatment arm versus placebo arm” value (rs111590482 genotype AG) of the same compound?
Its value is 0.85.

What about the Predicted response (rs111590482 genotype AG) of the same compound?
Its Predicted response is “R”.

And the “HR for time to events, dalcetrapib treatment arm versus placebo arm” value (rs111590482 genotype GG)?
The value was 0.26.

What about the Predicted response (rs111590482 genotype GG) of the same compound?
The Predicted response was “R”.
